SMILES strings stand for the structures. pIC50: −log10 of the molar value.

The assay concerns the target T1, microsomal triglyceride transfer protein (MTP) (Mesocricetus auratus, UniProt P55158).
T1 construct: The supernatant comprising the soluble MTP is dialysed against Tris/HCl 150 mM; from tissue; host or cells: golden hamster liver microsomes, deoxycholate-solubilised supernatant, dialysed
T1 sequence (P55158 19-895): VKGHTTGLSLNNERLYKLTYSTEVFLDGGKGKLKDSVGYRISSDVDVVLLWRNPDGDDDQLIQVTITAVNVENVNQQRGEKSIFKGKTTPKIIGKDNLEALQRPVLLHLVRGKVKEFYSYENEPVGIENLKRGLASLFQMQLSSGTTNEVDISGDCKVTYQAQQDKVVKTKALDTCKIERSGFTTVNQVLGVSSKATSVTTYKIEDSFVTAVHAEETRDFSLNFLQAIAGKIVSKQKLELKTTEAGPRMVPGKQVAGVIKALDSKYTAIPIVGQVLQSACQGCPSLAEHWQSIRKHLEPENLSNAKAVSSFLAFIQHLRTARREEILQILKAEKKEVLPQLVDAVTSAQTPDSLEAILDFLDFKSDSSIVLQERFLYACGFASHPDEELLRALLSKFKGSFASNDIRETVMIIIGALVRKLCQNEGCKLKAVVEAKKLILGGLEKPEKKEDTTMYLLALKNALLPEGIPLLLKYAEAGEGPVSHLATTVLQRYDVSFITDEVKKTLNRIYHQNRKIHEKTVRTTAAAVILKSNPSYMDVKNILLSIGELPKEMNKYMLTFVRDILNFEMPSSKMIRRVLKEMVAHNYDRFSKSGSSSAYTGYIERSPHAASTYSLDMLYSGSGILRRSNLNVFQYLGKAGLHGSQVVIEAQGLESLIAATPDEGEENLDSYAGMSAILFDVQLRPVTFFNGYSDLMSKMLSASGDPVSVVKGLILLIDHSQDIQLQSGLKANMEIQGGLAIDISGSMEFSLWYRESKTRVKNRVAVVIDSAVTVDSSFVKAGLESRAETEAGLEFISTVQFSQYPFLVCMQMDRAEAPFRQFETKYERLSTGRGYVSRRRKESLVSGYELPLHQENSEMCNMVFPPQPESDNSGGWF
In words: Inhibition of MTP activity: transfer of [3H]-triolein from donor liposomes to biotinylated LDL, SPA. The assay is classed as biochemical. The conditions noted are these: MTP from golden hamster liver; incubation 18-24 hours at 37° C.; read-out: IC50, concentration that allows a 50% inhibition of MTP. The procedure: Analysis of the Inhibition of MTP Activity
The inhibition of the activity of microsomal triglyceride transfer protein (MTP) was tested by using the following operating protocol.
The inhibition of MTP activity with a compound can be quantified by observing the inhibition of the transfer of a labelled triglyceride, from a donor particle to an acceptor particle, in the presence of MTP. The procedure for the preparation of MTP is based on the method by Wetterau and Zilversmit (Biochem. Biophys. Acta (1986) 875, 610). A few grams of golden hamster liver are taken and then rinsed several times in a 250 mM sucrose solution at 0° C. All the following steps proceed at +4° C. A homogenate at a concentration of 50% in 250 mM sucrose is prepared using a Teflon mill and then centrifuged for 10 minutes at 10 000×g at +4° C. The supernatant is then centrifuged at 105 000×g for 75 minutes at +4° C. The supernatant is discarded and the microsomal pellet is taken up in 3 ml (per g of starting liver) of Tris/HCl 150 mM pH 8.0. 1-ml aliquot fractions are stored at −80° C. until the time of use.
After thawing a fraction of microsomes (1 ml), 12 ml of refrigerated Tris/HCl 50 mM, KCl 50 mM, MgCl2 5 mM pH 7.4 buffers and 1.2 ml of deoxycholate (0.54% in water) are added. After incubation for 30 minutes at +4° C. with gentle agitation, the suspension is centrifuged at 105 000×g for 75 minutes. The supernatant comprising the soluble MTP is dialysed against Tris/HCl 150 mM, NaCl 40 mM, EDTA 1 mM, 0.02% sodium azide pH 7.4 buffer (5 times one litre over 2-3 days). The MTP is stored at +4° C., is stable for at least 30 days and is used in unmodified form in the test.
The donor particles (liposomes) are prepared from 208 μl of L-phosphatidylcholine at a concentration of 10 mg/ml in chloroform, and 480 μl of [3H]-triolein at a concentration of 0.5 mCi/ml in toluene. After stirring, the solution is evaporated under nitrogen, taken up in 6 ml of Tris/HCl 50 mM, KCl 50 mM, MgCl2 5 mM pH 7.4 buffer and incubated in an ultrasound bath for 30 minutes at room temperature. The liposomes are stored at +4° C. and sonicated again for 10 minutes before each use.
The acceptor particles are biotinylated low density lipoproteins (LDL-biot). These particles are supplied by the company Amersham.
The reaction mixture is prepared in untreated ½ well white plates (Corning Costar) by addition, in the following order, of: 5 μl of HEPES 50 mM, NaCl 150 mM, BSA 0.1% (w/v), 0.05% sodium azide (w/v), pH 7.4 buffer; 5 μl of liposome; 5 μl of LDL-biot; 5 μl of test products in DMSO; 5 μl of MTP. After incubation for 18-24 hours at 37° C., the reaction is stopped by adding 100 μl of Amersham SPA (Scintillation Proximity Assay) beads coupled to streptavidin, and the radioactivity is counted using a Top Count (Packard) machine at least one hour later. The inhibition of the transfer of the triglycerides with a compound is reflected by a reduction in the transferred radioactivity.
The results are expressed in terms of the IC50, i.e. the concentration that allows a 50% inhibition of MTP.
On to `Cc1cccc(C(=O)Nc2cccc(OC3CCN(C(=O)OC(C)(C)C)CC3)c2)c1-c1ccc(OC(F)(F)F)cc1` [Example 1, 1,1-dimethylethyl 4-[3-[[[6-methyl-4′-(trifluoromethoxy)[1,1′-biphenyl]-2-yl]carbonyl]amino]phenoxy]-1-piperidine-carboxylate], for which the pIC50 was 6.38. The result for `CC(=O)N1CCC(Oc2cccc(NC(=O)c3cccc(C)c3-c3ccc(OC(F)(F)F)cc3)c2)CC1` [Example 4, N-[3-[(1-acetyl-4-piperidinyl)oxy]phenyl]-6-methyl-4′-(trifluoromethoxy)[1,1′-biphenyl]-2-carboxamide] reads 6.46; that for `Cc1cccc(C(=O)Nc2cccc(OC3CCN(C(=O)Nc4ccccc4)CC3)c2)c1-c1ccc(OC(F)(F)F)cc1` [Example 11, 4-[3-[[[6-methyl-4′-(trifluoromethoxy)[1,1′-biphenyl]-2-yl]carbonyl]amino]phenoxy]-N-phenyl-1-piperidinecarboxamide], 6.46; that for `Cc1cccc(C(=O)Nc2cccc(OC3CCN(S(=O)(=O)c4cccnc4Cl)CC3)c2)c1-c1ccc(OC(F)(F)F)cc1` [Example 19, N-[3-[[1-[(2-chloro-3-pyridinyl)sulfonyl]-4-piperidinyl]oxy]phenyl]-6-methyl-4′-(trifluoromethoxy)[1,1′-biphenyl]-2-carboxamide], 6.54. Take `Cc1cccc(C(=O)Nc2cccc(OC3CCN(S(=O)(=O)c4cccc5nonc45)CC3)c2)c1-c1ccc(OC(F)(F)F)cc1` [Example 20, N-[3-[[1-(2,1,3-benzoxadiazol-4-yl-sulfonyl)-4-piperidinyl]oxy]phenyl]-6-methyl-4′-(trifluoromethoxy)[1,1′-biphenyl]-2-carboxamide]: the pIC50 was 6.41. The result for `COc1cccc(NC(=O)N2CCC(Oc3cccc(NC(=O)c4cccc(C)c4-c4ccc(OC(F)(F)F)cc4)c3)CC2)c1` [Example 23, N-(3-methoxyphenyl)-4-[3-[[[6-methyl-4′-(trifluoromethoxy)[1,1′-biphenyl]-2-yl]-carbonyl]amino]phenoxy]-1-piperidine-carboxamide] reads 6.58. Turning to `Cc1cccc(C(=O)Nc2cccc(OC3CCN(C(=O)Nc4cccc(C(F)(F)F)c4)CC3)c2)c1-c1ccc(OC(F)(F)F)cc1` [Example 24, 4-[3-[[[6-methyl-4-(trifluoromethoxy)[1,1′-4-biphenyl]-2-yl]carbonyl]amino]phenoxy]-N-[3-(trifluoromethyl)phenyl]-1-piperidine-carboxamide], the pIC50 is 6.34. The result for `Cc1cccc(C(=O)Nc2cccc(OC3CCN(C(=O)Nc4ccc(F)cc4)CC3)c2)c1-c1ccc(OC(F)(F)F)cc1` [Example 25, N-(4-fluorophenyl)-4-[3-[[[6-methyl-4′-(trifluoromethoxy)[1,1′-biphenyl]-2-yl]-carbonyl]amino]phenoxy]-1-piperidine-carboxamide] reads 6.44; that for `CCOC(=O)c1ccc(NC(=O)N2CCC(Oc3cccc(NC(=O)c4cccc(C)c4-c4ccc(OC(F)(F)F)cc4)c3)CC2)cc1` [Example 27, ethyl 4-[[[4-[3-[[[6-methyl-4′-(trifluorometh-oxy)[1,1′-biphenyl]-2-yl]carbonyl]amino]-phenoxy]-1-piperidinyl]carbonyl]amino]-benzoate], 6.53; that for `Cc1cccc(C(=O)Nc2cccc(OC3CCN(C(=O)NC(C)(C)C)CC3)c2)c1-c1ccc(OC(F)(F)F)cc1` [Example 28, N-(1,1-dimethylethyl)-4-[3-[[[6-methyl-4′-(trifluoromethoxy)[1,1′-biphenyl]-2-yl]-carbonyl]amino]phenoxy]-1-piperidine-carboxamide], 6.63. `Cc1ccc(NC(=O)N2CCC(Oc3cccc(NC(=O)c4cccc(C)c4-c4ccc(OC(F)(F)F)cc4)c3)CC2)cc1` [Example 29, N-(4-methylphenyl)-4-(3-[[[6-methyl-4′-(trifluoromethoxy)[1,1′-biphenyl]-2-yl]-carbonyl]amino]phenoxy]-1-piperidine-carboxamide]: the pIC50 was 6.57. With `Cc1cccc(C(=O)Nc2cccc(OC3CCN(C(=O)NC(C)C)CC3)c2)c1-c1ccc(OC(F)(F)F)cc1` [Example 30, N-(1-methylethyl)-4-[3-[[[6-methyl-4′-(trifluoromethoxy)[1,1′-biphenyl]-2-yl]-carbonyl]amino]phenoxy]-1-piperidine-carboxamide] the figure was 6.43; with `CCOC(=O)CNC(=O)N1CCC(Oc2cccc(NC(=O)c3cccc(C)c3-c3ccc(OC(F)(F)F)cc3)c2)CC1` [Example 31, ethyl N-[[4-[3-[[[6-methyl-4′-(trifluorometh-oxy)[1,1′-biphenyl]-2-yl]carbonyl]amino]-phenoxy]-1-piperidinyl]carbonyl]glycinate], 7.08. As for `C=CCNC(=O)N1CCC(Oc2cccc(NC(=O)c3cccc(C)c3-c3ccc(OC(F)(F)F)cc3)c2)CC1` [Example 32, 4-[3-[[[6-methyl-4′-(trifluoromethoxy)[1,1′-biphenyl]-2-yl]carbonyl]amino]phenoxy]-N-2-propenyl-1-piperidinecarboxamide], the pIC50 is 6.79. With `CCCCNC(=O)N1CCC(Oc2cccc(NC(=O)c3cccc(C)c3-c3ccc(OC(F)(F)F)cc3)c2)CC1` [Example 33, N-butyl-4-[3-[[[6-methyl-4′-(trifluorometh-oxy)[1,1′-biphenyl]-2-yl]carbonyl]amino]-phenoxy]-1-piperidinecarboxamide], the pIC50 is 6.94. As for `Cc1cccc(C(=O)Nc2cccc(OC3CCN(C(=O)NC4CCCCC4)CC3)c2)c1-c1ccc(OC(F)(F)F)cc1` [Example 34, N-cyclohexyl-4-[3-[[[6-methyl-4′-(trifluoro-methoxy)[1,1′-biphenyl]-2-yl]carbonyl]-amino]phenoxy]-1-piperidinecarboxamide], the pIC50 is 6.53.

As to `Cc1cccc(C(=O)Nc2cccc(OC3CCN(C(=O)NCc4ccccc4)CC3)c2)c1-c1ccc(OC(F)(F)F)cc1` [Example 35, 4-[3-[[[6-methyl-4′-(trifluoromethoxy)[1,1′-biphenyl]-2-yl]carbonyl]amino]phenoxy]-N-(phenylmethyl)-1-piperidinecarbox-amide], the pIC50 was 6.92.

For `Cc1cccc(C(=O)Nc2cccc(OC3CCN(C(=O)Nc4cccc(C#N)c4)CC3)c2)c1-c1ccc(OC(F)(F)F)cc1` [Example 37, N-(3-cyanophenyl)-4-[3-[[[6-methyl-4′-(trifluoromethoxy)[1,1′-biphenyl]-2-yl]-carbonyl]amino]phenoxy]-1-piperidine-carboxamide], the pIC50 is 7.19.

Source of the values: patent US7723358B2, “Aroyl-O-piperidine derivatives for the treatment of diabetes-related problems” (Merck Patent GmbH, priority 2004, dated 2010).
